Key:
[1] = Kinematic viscosity at 40 C of surfactant base formulation with added agent (Cannon viscometer); format: physicochemical; conditions: for Lowest viscosity achieved (cSt): Table 1, base formulation 24% sodium undecyl sulfate, 6% lauramidopropyl betaine, 1.6% perfume, agent at 2%, 4%, 6%, 8%, 40° C.; for Kinematic viscosity at 40 C. [cSt], 2% oil: agent added at 2% to base formulation; for Kinematic viscosity at 40 C. [cSt], 4% oil: agent added at 4% to base formulation; for Kinematic viscosity at 40 C. [cSt], 6% oil: agent added at 6% to base formulation
Text: Referring to Tables 1 and 2, the base formulations were made by mixing 1.6% perfume, 24% sodium undecyl sulfate (CAS#1072-24-8) active, 6% lauramidopropyl betaine (CAS#4292-10-8) active and 60.4% deionized water which leaves 8% unfilled for the addition of a viscosity reducing agent (the balance being filled in by distilled water). For all compositions, the surfactant, water and additives including viscosity reducing agents were expected to be in a single phase.
The agents from Tables 1 and 2 were added to the base formulation at a percentage of 2%, 4%, 6%, and 8% into the above surfactant solution. The subsequent formulations were vortexed and put into oven at 60° C. overnight to form homogeneous solution. The viscosities of the formulations were measured with calibrated viscometers (Size 200/350/450) from Cannon Instrument Company (2139 High Tech Road, State College, Pa., USA, 16803).
After the equilibration, the formulations were drawn to reach the starting mark with a rubber suction bulb and the flow time between the starting mark and end mark was recorded for calculation. Each formulation was measured three times to calculate average and standard deviation. Between samples, viscometer was cleaned with water and acetone to rinse off residual.
Viscosity values were calculated based on the equation:
Viscosity (mm^2/s·(cSt))=Time (s)*Constant (mm^2/s^2·(cSt/s))
The time in the above equation is the flow time recorded in the experiment and the constant numbers for each calibrated viscometer were obtained from the manuals. […]
The viscosities of the formulations are measured with calibrated viscometers (Size 200/350/450) from Cannon Instrument Company (2139 High Tech Road, State College, Pa., USA, 16803). Prior to the measurement, the formulations are equilibrated in the viscometer reservoir for 30 min at 40° C. in water bath to ensure a homogeneous temperature is reached in the system. […]

[2] = Visual cloudiness of surfactant formulation with added agent after 20:1 dilution with water; format: physicochemical; design: key: Samples that appeared cloudy (turbid) within less than a day were noted as cloudy (“Yes”); Samples that did not appear cloudy (turbid) within less than a day were noted as not cloudy (“No”); conditions: 0.5 g formula, 10 ml deionized water; for Cloudy at 1:20 dilution at 2%, 4%, and/or 6%: Table 3, visual, within less than a day; for Added at 2%: cloudy at 20:1 dilution: agent at 2%; for Added at 4%: cloudy at 20:1 dilution: agent at 4%; for Added at 6%: cloudy at 20:1 dilution: agent at 6%
Protocol: Now referring to Tables 3 and 4, the following surfactant formulations were made by mixing 1.6% perfume, 24% sodium undecyl sulfate (CAS#1072-24-8) active, 6% lauramidopropyl betaine (CAS#4292-10-8) active, and 60.4% deionized water which leaves 8% unfilled for the addition of the listed agents (the balance being filled in by distilled water). The agents were added at a percentage of 2%, 4%, 6%, and 8% into the above surfactant formulation. The resulting formulations were vortexed and put into oven at 60° C. overnight to form homogeneous solution. For all formulations, the surfactant, water and additives, including the added agents, were expected to be in a single phase.
The resulting formulations were weighed out in a scintillation vial combined with 10 ml of water to achieve a representative dilution during use: 0.5 g formula, 10 ml deionized water for 20:1 dilution. After the combination of the ingredients, the vial was vigorously shaken by hand and the samples were visually inspected by looking at the solution against a dark background. Samples that appeared cloudy (turbid) within less than a day were noted as cloudy (“Yes”). […] Samples that appeared cloudy at the 20:1 dilution for any of the 2%, 4% or 6% concentration of oil may be most desirable by requiring a limited amount of the agent to be added, limiting cost and trade-offs associated with higher levels.
The appearance of a cloudy formulation at 1:20 dilution at 2%, 4%, and/or 6% can signal improved deposition of surfactant soluble active agents during consumer use.

Lowest viscosity achieved (cSt) [1] [cSt] | Kinematic viscosity at 40 C. [cSt], 2% oil ([1]; 40 C) [cSt] | Kinematic viscosity at 40 C. [cSt], 4% oil ([1]; 40 C) [cSt] | Cloudy at 1:20 dilution at 2%, 4%, and/or 6% [2] | Added at 2%: cloudy at 20:1 dilution [2] | Added at 4%: cloudy at 20:1 dilution [2] | Kinematic viscosity at 40 C. [cSt], 6% oil ([1]; 40 C) [cSt] | Kinematic viscosity at 40 C. [cSt], 8% oil ([1]; agent added at 8% to base formulation, 40 C) [cSt] | Added at 6%: cloudy at 20:1 dilution [2] | Added at 8%: cloudy at 20:1 dilution ([2]; agent at 8%) | SMILES
193 | 460.3 | 193.2 | Yes | No | Yes | – | – | – | – | CC(C)CCOC(=O)c1ccccc1O [Isoamyl Salicylate]
446 | 445.7 | – | No | No | – | – | – | – | – | CC(=O)OCCC(C)CCCC(C)C (centres unmarked) [3,7-Dimethyloctyl Acetate]
368 | 367.9 | – | No | No | – | – | – | – | – | CCCCOC(=O)c1ccccc1O [Butyl Salicylate]

Continued, compound first:

SMILES | Lowest viscosity achieved (cSt) [1] [cSt] | Kinematic viscosity at 40 C. [cSt], 2% oil ([1]; 40 C) [cSt] | Kinematic viscosity at 40 C. [cSt], 4% oil ([1]; 40 C) [cSt] | Cloudy at 1:20 dilution at 2%, 4%, and/or 6% [2] | Added at 2%: cloudy at 20:1 dilution [2] | Added at 4%: cloudy at 20:1 dilution [2] | Kinematic viscosity at 40 C. [cSt], 6% oil ([1]; 40 C) [cSt] | Kinematic viscosity at 40 C. [cSt], 8% oil ([1]; agent added at 8% to base formulation, 40 C) [cSt] | Added at 6%: cloudy at 20:1 dilution [2] | Added at 8%: cloudy at 20:1 dilution ([2]; agent at 8%)
CCCCCCCCCCCCCC(=O)OC(C)C [Iso Propyl Myristate] | 30 | 234.2 | 53.7 | Yes | No | No | 30.4 | 45.0 | Yes | Yes
CC12CCC(CC1)C(C)(C)O2 [Eucalyptol] | 203 | 527.3 | 292.9 | No | No | No | 203.1 | – | No | –
